Results: patent US12448392B2, “Spiropiperidine derivatives” (89BIO LTD, priority 2016, dated 2025)

Target: T1, recombinant human baculovirus-expressed GST-tagged FASN (Homo sapiens, UniProt P49327)
T1 construct: GST
Assay: biochemical
Conditions: not given

T1 sequence (P49327 whole entry): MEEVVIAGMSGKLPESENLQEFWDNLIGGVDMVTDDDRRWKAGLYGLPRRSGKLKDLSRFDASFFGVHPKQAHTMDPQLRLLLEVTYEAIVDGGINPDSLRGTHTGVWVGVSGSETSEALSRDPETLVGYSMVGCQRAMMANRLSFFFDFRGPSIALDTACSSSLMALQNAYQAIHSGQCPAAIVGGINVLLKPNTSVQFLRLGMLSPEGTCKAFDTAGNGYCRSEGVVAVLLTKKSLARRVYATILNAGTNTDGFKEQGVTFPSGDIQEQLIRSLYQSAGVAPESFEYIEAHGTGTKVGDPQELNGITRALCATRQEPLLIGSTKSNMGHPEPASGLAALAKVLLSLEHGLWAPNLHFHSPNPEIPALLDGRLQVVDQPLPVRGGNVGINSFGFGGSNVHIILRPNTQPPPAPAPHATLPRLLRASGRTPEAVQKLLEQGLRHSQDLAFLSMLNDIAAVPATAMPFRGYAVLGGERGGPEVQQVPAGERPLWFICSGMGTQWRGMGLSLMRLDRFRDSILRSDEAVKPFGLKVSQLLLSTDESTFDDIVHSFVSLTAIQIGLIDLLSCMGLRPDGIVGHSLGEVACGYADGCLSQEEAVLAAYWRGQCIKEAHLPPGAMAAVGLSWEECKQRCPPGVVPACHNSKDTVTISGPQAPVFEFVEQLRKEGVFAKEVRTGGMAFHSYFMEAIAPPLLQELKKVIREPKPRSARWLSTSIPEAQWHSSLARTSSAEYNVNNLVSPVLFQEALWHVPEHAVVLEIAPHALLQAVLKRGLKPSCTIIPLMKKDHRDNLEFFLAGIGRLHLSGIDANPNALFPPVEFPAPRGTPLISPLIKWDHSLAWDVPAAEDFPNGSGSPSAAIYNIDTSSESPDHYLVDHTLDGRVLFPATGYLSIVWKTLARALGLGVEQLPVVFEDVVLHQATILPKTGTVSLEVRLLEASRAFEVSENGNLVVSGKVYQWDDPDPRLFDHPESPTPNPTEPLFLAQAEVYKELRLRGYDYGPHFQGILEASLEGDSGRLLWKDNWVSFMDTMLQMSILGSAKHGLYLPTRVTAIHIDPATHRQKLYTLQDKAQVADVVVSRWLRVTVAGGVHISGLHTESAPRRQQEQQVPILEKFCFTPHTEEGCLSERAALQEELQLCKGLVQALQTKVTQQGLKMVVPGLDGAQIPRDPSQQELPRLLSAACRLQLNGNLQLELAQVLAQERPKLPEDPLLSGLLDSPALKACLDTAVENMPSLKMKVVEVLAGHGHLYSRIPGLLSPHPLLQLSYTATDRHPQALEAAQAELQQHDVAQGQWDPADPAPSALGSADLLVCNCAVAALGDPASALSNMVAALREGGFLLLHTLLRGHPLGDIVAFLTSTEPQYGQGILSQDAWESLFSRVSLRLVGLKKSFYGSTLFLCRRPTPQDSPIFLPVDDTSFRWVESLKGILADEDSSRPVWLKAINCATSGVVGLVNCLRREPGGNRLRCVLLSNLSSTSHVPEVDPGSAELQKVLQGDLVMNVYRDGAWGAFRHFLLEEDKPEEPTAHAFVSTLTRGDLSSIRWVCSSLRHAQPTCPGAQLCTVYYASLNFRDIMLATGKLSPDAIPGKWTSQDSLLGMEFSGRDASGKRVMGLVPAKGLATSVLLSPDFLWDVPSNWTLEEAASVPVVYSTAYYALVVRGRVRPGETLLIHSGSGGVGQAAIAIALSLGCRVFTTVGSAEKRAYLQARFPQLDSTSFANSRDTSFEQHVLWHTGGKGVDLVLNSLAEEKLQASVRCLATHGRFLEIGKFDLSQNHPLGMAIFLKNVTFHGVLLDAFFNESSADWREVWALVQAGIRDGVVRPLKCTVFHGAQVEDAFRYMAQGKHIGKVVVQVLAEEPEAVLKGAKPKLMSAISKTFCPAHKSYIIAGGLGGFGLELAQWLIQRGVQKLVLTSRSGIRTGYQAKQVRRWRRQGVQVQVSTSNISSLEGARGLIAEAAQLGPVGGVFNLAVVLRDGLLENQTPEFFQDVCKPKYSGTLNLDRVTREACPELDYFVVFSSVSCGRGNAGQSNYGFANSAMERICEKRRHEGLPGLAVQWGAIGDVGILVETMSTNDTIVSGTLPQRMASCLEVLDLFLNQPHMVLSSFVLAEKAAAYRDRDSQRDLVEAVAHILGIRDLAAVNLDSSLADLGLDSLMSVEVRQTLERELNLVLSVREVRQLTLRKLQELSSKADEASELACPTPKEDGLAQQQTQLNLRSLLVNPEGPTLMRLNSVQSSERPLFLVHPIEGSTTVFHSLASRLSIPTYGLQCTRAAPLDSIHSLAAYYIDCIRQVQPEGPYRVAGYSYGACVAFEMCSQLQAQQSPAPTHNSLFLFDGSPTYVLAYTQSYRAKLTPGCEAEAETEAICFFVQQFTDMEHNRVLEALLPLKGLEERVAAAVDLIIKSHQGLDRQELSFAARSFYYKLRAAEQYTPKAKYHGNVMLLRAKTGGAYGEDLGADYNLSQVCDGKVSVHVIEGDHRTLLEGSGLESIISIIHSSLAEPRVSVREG

SMILES	IC50
COc1c(-c2ccc3c(c2)COC2(CCN(C(=O)[C@H]4CCCO4)CC2)O3)ccc2cccnc12 [Example 56, [6-(8-Methoxy-7-quinolyl)spiro[4H-1,3-benzodioxine-2,4′-piperidine]-1′-yl]-[(2R)-tetrahydrofuran-2-yl]methanone]	1 to 99 nM
CCC(=O)N1CCC2(CC1)OCc1cc(-c3ccc4cccnc4c3Cl)ccc1O2 [Example 57, 1-[6-(8-Chloro-7-quinolyl)spiro[4H-1,3-benzodioxine-2,4′-piperidine]-1′-yl]propan-1-one]	1 to 99 nM
O=C(C1CC1)N1CCC2(CC1)OCc1cc(-c3ccc4cccnc4c3Cl)ccc1O2 [Example 58, [6-(8-Chloro-7-quinolyl)spiro[4H-1,3-benzodioxine-2,4′-piperidine]-1′-yl]-cyclopropyl-methanone]	1 to 99 nM
O=C([C@H]1CCCO1)N1CCC2(CC1)OCc1cc(-c3ccc4cccnc4c3Cl)ccc1O2 [Example 59, [6-(8-Chloro-7-quinolyl)spiro[4H-1,3-benzodioxine-2,4′-piperidine]-1′-yl]-[(2R)-tetrahydrofuran-2-yl]methanone]	1 to 99 nM
CC(=O)OCC(=O)N1CCC2(CC1)OCc1cc(-c3ccc4cccnc4c3C)ccc1O2 [Example 60, [2-[6-(8-methyl-7-quinolyl)spiro[4H-1,3-benzodioxine-2,4′-piperidine]-1′-yl]-2-oxo-ethyl]acetate]	100 to 999 nM
Cc1c(-c2ccc3c(c2)COC2(CCN(C(=O)CO)CC2)O3)ccc2cccnc12 [Example 62, 2-Hydroxy-1-[6-(8-methyl-7-quinolyl)spiro[4H-1,3-benzodioxine-2,4′-piperidine]-1′-yl]ethanone]	100 to 999 nM
Cc1c(-c2ccc3c(c2)CCOC2(CCN(C(N)=O)CC2)O3)ccc2cccnc12 [Example 77, 7-(8-methyl-7-quinolyl)spiro[4,5-dihydro-1,3-benzodioxepine-2,4′-piperidine]-1′-carboxamide]	100 to 999 nM
CCNC(=O)N1CCC2(CC1)OCCc1cc(-c3ccc4cccnc4c3C)ccc1O2 [Example 78, N-Ethyl-7-(8-methyl-7-quinolyl)spiro[4,5-dihydro-1,3-benzodioxepine-2,4′-piperidine]-1′-carboxamide]	100 to 999 nM
CCONC(=O)N1CCC2(CC1)OCCc1cc(-c3ccc4cccnc4c3C)ccc1O2 [Example 79, N-Ethoxy-7-(8-methyl-7-quinolyl)spiro[4,5-dihydro-1,3-benzodioxepine-2,4′-piperidine]-1′-carboxamide]	1 to 99 nM
CONC(=O)N1CCC2(CC1)OCCc1cc(-c3ccc4cccnc4c3C)ccc1O2 [Example 80, N-Methoxy-7-(8-methyl-7-quinolyl)spiro[4,5-dihydro-1,3-benzodioxepine-2,4′-piperidine]-1′-carboxamide]	1 to 99 nM
Cn1cnc2cc(-c3ccc4c(c3)COC3(CCN(C(N)=O)CC3)O4)ccc21 [Example 82, 6-(1-Methylbenzimidazol-5-yl)spiro[4H-1,3-benzodioxine-2,4′-piperidine]-1′-carboxamide]	100 to 999 nM
CC(C)(C)OC(=O)N1CCC2(CC1)OCc1cc(-c3cnc4sccc4c3)ccc1O2 [Example 84, tert-Butyl 6-thieno[2,3-b]pyridin-5-ylspiro[4H-1,3-benzodioxine-2,4′-piperidine]-1′-carboxylate]	1000 to 10000 nM
NC(=O)N1CCC2(CC1)OCc1cc(-c3cnc4sccc4c3)ccc1O2 [Example 89, 6-thieno[2,3-b]pyridin-5-ylspiro[4H-1,3-benzodioxine-2,4′-piperidine]-1′-carboxamide]	1000 to 10000 nM

Same assay, conditions: 5 nM FASN, 150 μM NADPH, 10 μM acetyl-CoA, 25 μM malonyl-CoA, 90 minutes incubation; read-out: IC50 data for Compounds of Formula I, Activity

SMILES	IC50
Cc1c(-c2ccc3c(c2)CCC2(CCN(C(=O)CO)CC2)O3)ccc2cccnc12 [Example 61, 2-Hydroxy-1-[6-(8-methyl-7-quinolyl)spiro[chromane-2,4′-piperidine]-1′-yl]-ethanone]	100 to 999 nM
NC(=O)N1CCC2(CCc3cc(-c4ccc5cccnc5c4Cl)ccc3O2)CC1 [Example 63, 6-(8-Chloro-7-quinolyl)spiro[chromane-2,4′-piperidine]-1′-carboxamide]	1 to 99 nM
CC(=O)OCC(=O)N1CCC2(CCc3cc(-c4ccc5cccnc5c4Cl)ccc3O2)CC1 [Example 64, [2-[6-(8-chloro-7-quinolyl)spiro[chromane-2,4′-piperidine]-1′-yl]-2-oxo-ethyl]acetate]	100 to 999 nM
O=C(NOC1CCCCO1)N1CCC2(CCc3cc(-c4ccc5cccnc5c4Cl)ccc3O2)CC1 (stereo not shown) [Example 65, 6-(8-Chloro-7-quinolyl)-N-tetrahydropyran-2-yloxy-spiro[chromane-2,4′-piperidine]-1′-carboxamide]	1 to 99 nM
CCNC(=O)N1CCC2(CCc3cc(-c4ccc5cccnc5c4Cl)ccc3O2)CC1 [Example 66, 6-(8-chloro-7-quinolyl)-N-ethyl-spiro[chromane-2,4′-piperidine]-1′-carboxamide]	1 to 99 nM
O=C(CO)N1CCC2(CCc3cc(-c4ccc5cccnc5c4Cl)ccc3O2)CC1 [Example 67, 1-[6-(8-chloro-7-quinolyl)spiro[chromane-2,4′-piperidine]-1′-yl]-2-hydroxy-ethanone]	1000 to 10000 nM
O=C(NO)N1CCC2(CCc3cc(-c4ccc5cccnc5c4Cl)ccc3O2)CC1 [Example 68, 6-(8-Chloro-7-quinolyl)spiro[chromane-2,4′-piperidine]-1′-carbohydroxamic acid]	100 to 999 nM
CCONC(=O)N1CCC2(CCc3cc(-c4ccc5cccnc5c4Cl)ccc3O2)CC1 [Example 69, 6-(8-chloro-7-quinolyl)-N-ethoxy-spiro[chromane-2,4′-piperidine]-1′-carboxamide]	1 to 99 nM
CONC(=O)N1CCC2(CCc3cc(-c4ccc5cccnc5c4Cl)ccc3O2)CC1 [Example 70, 6-(8-chloro-7-quinolyl)-N-methoxy-spiro[chromane-2,4′-piperidine]-1′-carboxamide]	1 to 99 nM
CCOC(=O)N1CCC2(CCc3cc(-c4ccc5cccnc5c4Cl)ccc3O2)CC1 [Example 71, Ethyl 6-(8-chloro-7-quinolyl)spiro[chromane-2,4′-piperidine]-1′-carboxylate]	1000 to 10000 nM
NC(=O)N1CCC2(CCc3cc(-c4cnc5ccccc5c4)ccc3O2)CC1 [Example 72, 6-(3-Quinolyl)spiro[chromane-2,4′-piperidine]-1′-carboxamide]	100 to 999 nM
NC(=O)N1CCC2(CCc3cc(-c4ccc5occc5c4)ccc3O2)CC1 [Example 73, 6-(Benzofuran-5-yl)spiro[chromane-2,4′-piperidine]-1′-carboxamide]	1000 to 10000 nM
NC(=O)N1CCC2(CCc3cc(-c4ccc5ncsc5c4)ccc3O2)CC1 [Example 74, 6-(1,3-benzothiazol-6-yl)spiro[chromane-2,4′-piperidine]-1′-carboxamide]	1000 to 10000 nM
Cn1ccc2cc(-c3ccc4c(c3)CCC3(CCN(C(N)=O)CC3)O4)ccc21 [Example 75, 6-(1-Methylindol-5-yl)spiro[chromane-2,4′-piperidine]-1′-carboxamide]	100 to 999 nM
NC(=O)N1CCC2(CCc3cc(-c4ccc5[nH]ccc5c4)ccc3O2)CC1 [Example 76, 6-(1H-Indol-5-yl)spiro[chromane-2,4′-piperidine]-1′-carboxamide]	100 to 999 nM
Cn1cnc2cc(-c3ccc4c(c3)CCC3(CCN(C(N)=O)CC3)O4)ccc21 [Example 81, 6-(1-Methylbenzimidazol-5-yl)spiro[chromane-2,4′-piperidine]-1′-carboxamide]	100 to 999 nM
NC(=O)N1CCC2(CCc3cc(-c4ccc5scnc5c4)ccc3O2)CC1 [Example 83, 6-(1,3-Benzothiazol-5-yl)spiro[chromane-2,4′-piperidine]-1′-carboxamide]	100 to 999 nM
NC(=O)N1CCC2(CCc3cc(-c4cnc5sccc5c4)ccc3O2)CC1 [Example 85, 6-Thieno[2,3-b]pyridin-5-ylspiro[chromane-2,4′-piperidine]-1′-carboxamide]	1000 to 10000 nM
NC(=O)N1CCC2(CCc3cc(-c4ccc5ocnc5c4)ccc3O2)CC1 [Example 86, 6-(1,3-Benzoxazol-5-yl)spiro[chromane-2,4′-piperidine]-1′-carboxamide]	1000 to 10000 nM
CCNC(=O)N1CCC2(CCc3cc(-c4ccc5cccnc5c4C)ccc3O2)CC1 [Example 97, N-Ethyl-6-(8-methyl-7-quinolyl)spiro[chromane-2,4′-piperidine]-1′-carboxamide]	1 to 99 nM
Cc1c(-c2ccc3c(c2)CCC2(CCN(C(=O)NC(C)C)CC2)O3)ccc2cccnc12 [Example 98, N-Isopropyl-6-(8-methyl-7-quinolyl)spiro[chromane-2,4′-piperidine]-1′-carboxamide]	100 to 999 nM
CCCNC(=O)N1CCC2(CCc3cc(-c4ccc5cccnc5c4C)ccc3O2)CC1 [Example 99, 6-(8-Methyl-7-quinolyl)-N-propyl-spiro[chromane-2,4′-piperidine]-1′-carboxamide]	1 to 99 nM
Cc1c(-c2ccc3c(c2)CCC2(CCN(C(=O)NCC4CC4)CC2)O3)ccc2cccnc12 [Example 100, N-(Cyclopropylmethyl)-6-(8-methyl-7-quinolyl)spiro[chromane-2,4′-piperidine]-1′-carboxamide]	1 to 99 nM
CCONC(=O)N1CCC2(CCc3cc(-c4ccc5cccnc5c4C)ccc3O2)CC1 [Example 101, N-Ethoxy-6-(8-methyl-7-quinolyl)spiro[chromane-2,4′-piperidine]-1′-carboxamide]	1 to 99 nM
CCCONC(=O)N1CCC2(CCc3cc(-c4ccc5cccnc5c4C)ccc3O2)CC1 [Example 102, 6-(8-Methyl-7-quinolyl)-N-propoxy-spiro[chromane-2,4′-piperidine]-1′-carboxamide]	1 to 99 nM
Cc1c(-c2ccc3c(c2)CCC2(CCN(C(=O)NOC(C)C)CC2)O3)ccc2cccnc12 [Example 103, N-Isopropoxy-6-(8-methyl-7-quinolyl)spiro[chromane-2,4′-piperidine]-1′-carboxamide]	1 to 99 nM
Cc1c(-c2ccc3c(c2)CCC2(CCN(C(=O)NOCC(C)C)CC2)O3)ccc2cccnc12 [Example 104, N-Isobutoxy-6-(8-methyl-7-quinolyl)spiro[chromane-2,4′-piperidine]-1′-carboxamide]	100 to 999 nM
